We go through three molecules from patent US20030171375A1, “Method for treating ocular neovascular diseases” (priority 2002, published 2003).

Molecules are shown by their SMILES. pIC50: −log10 of the molar value.

Series [1] deals with PDGF receptors. The series can be described thus: cellular autophosphorylation assay, Chinese hamster ovary cells transfected with RTK gene. Type of series: cell-based. The following applies: transfected CHO cells.
Description: (§1) In vivo activity requires drugs to enter cells and therefore agents are tested in cellular autophosphorylation assays, using Chinese hamster ovary cells transfected with one of several RTK genes.
Series [2] deals with T1, C-Met (Homo sapiens, UniProt P08581).
T1 construct: GST-fusion proteins of the kinase domains of several tyrosine kinase receptors; GST
The experiment in a line: standard tyrosine kinase assay: phosphorylation of poly(GluTyr) by GST-fusion kinase domain. Type of series: biochemical. The following applies: kinase inhibitory profile.

Series [3] concerns the target T2, Flk-1 (Mus musculus, UniProt P35918).
T2 construct: GST-fusion proteins of the kinase domains of several tyrosine kinase receptors; GST
The description is as above. In kind it is biochemical. Conditions: kinase inhibitory profile, Table I.

The test system of series [4] is VEGF receptors. The series can be described thus: cellular autophosphorylation assay, Chinese hamster ovary cells transfected with RTK gene. Conditions: transfected CHO cells.
Description: as §1
Series [5] concerns the target T3, Flt-1 (Homo sapiens, UniProt P17948).
T3 construct: GST-fusion proteins of the kinase domains of several tyrosine kinase receptors; GST
T3 sequence (P17948 827-1158 limits assumed): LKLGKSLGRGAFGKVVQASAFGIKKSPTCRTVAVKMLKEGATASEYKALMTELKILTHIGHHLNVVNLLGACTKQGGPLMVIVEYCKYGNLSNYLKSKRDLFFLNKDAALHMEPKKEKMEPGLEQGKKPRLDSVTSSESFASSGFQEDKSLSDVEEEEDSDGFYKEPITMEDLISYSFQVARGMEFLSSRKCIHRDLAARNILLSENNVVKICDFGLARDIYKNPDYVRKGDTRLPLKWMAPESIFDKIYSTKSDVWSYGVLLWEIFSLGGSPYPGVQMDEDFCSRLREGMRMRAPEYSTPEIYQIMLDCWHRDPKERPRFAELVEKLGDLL
The experiment in a line: standard tyrosine kinase assay: phosphorylation of poly(GluTyr) by GST-fusion kinase domain. In kind it is biochemical.

The target of series [6] is T4, Tie-2 (Homo sapiens, UniProt Q02763).
T4 construct: GST-fusion proteins of the kinase domains of several tyrosine kinase receptors; GST
Described as above. Conditions: kinase inhibitory profile. In kind it is biochemical.

Series [7] concerns other RTKs including VEGF receptors. The experiment in a line: standard tyrosine kinase assay, other RTKs. Type of series: biochemical.
Series [8] has as its system developing retinal vessels of neonatal mice. The series can be described thus: drug treatment of mice during retinal vascular development. Type of series: in vivo, C57/BL6J mice. The protocol:
[…] of newborn C57/BL6J mice are divided into treatment and control groups which received daily subcutaneous injections of 10 mg/kg of drug or vehicle, respectively. At P7 or P10, mice are anesthetized with ether, and perfused with 1 ml of phosphate-buffered saline containing 50 mg/ml of fluorescein-labeled dextran (2×10^6 average mw, Sigma, St. Louis, Mo.).. The eyes are removed and fixed for 1 hour in 10% phosphate-buffered formalin. The cornea and […] are removed and the entire retina is carefully dissected from the eyecup, radially cut from the edge of the retina to the equator in all 4 quadrants, and flat-mounted in Aquamount. with photoreceptors facing upward.

For series [9], the system named is retinal vessels in adult mice. The series can be described thus: effect on retinal vessels in adult mice. The following applies: 50 mg/kg/day, 5 days. In kind it is in vivo, C57BL6J mice.
Description: Ischemic retinopathy is produced in C57/BL6J mice by the following method: Seven-day-old mice and their mothers are placed in an airtight incubator and exposed to an atmosphere of 75±3% oxygen for 5 days. Incubator temperature is maintained at 23±2° C., and oxygen is measured every 8 hours with an oxygen analyzer. After 5 days, the mice are removed from the incubator, placed in room air, and drug treatment is begun. […] Vehicle (control) or vehicle containing various concentrations of drug (volume =50 μl in neonates and 100 μl in adult mice) is placed in the stomach by gavage. After 5 days of treatment at P17, mice are sacrificed, eyes are rapidly removed and frozen in optimum cutting temperature embedding compound (OCT; Miles Diagnostics, Elkhart, IN) or fixed in 10% phosphate-buffered formalin and embedded in paraffin. Adult C57BL6J mice are also treated by gavage with drug or vehicle and after 5 days, they are sacrificed and their eyes are processed for frozen or paraffin sections. […] Slides are rinsed with 0.05M Tris-buffered saline, pH 7.6 (TBS) and incubated 2 hours at room temperature with biotinylated lectin. […] Some slides are counterstained with hematoxyfn and all are mounted with Cytoseal. […] The mean of the 13 measurements from each eye is used as a single experimental value.
The test system of series [10] is mice with choroidal neovascularization. The experiment in a line: laser-induced choroidal neovascularization in mice. Conditions: 50 mg/kg/day by gavage, two weeks after laser.
The target in series [11] is c-erbB2 (Homo sapiens, UniProt P04626). The series can be described thus: cellular autophosphorylation assay, Chinese hamster ovary cells transfected with RTK gene. The following applies: transfected CHO cells.
Description: as §1
For series [12], the target named is c-Kit (Homo sapiens, UniProt P10721). Conditions: transfected CHO cells.
Series [13] relates to mice with ischemic retinopathy. The series can be described thus: retinal neovascularization in mice with oxygen-induced ischemic retinopathy. The following applies: P17 mice.
Description: Ischemic retinopathy is produced in C57/BL6J mice by the following method: Seven-day-old mice and their mothers are placed in an airtight incubator and exposed to an atmosphere of 75±3% oxygen for 5 days. Incubator temperature is maintained at 23±2° C., and oxygen is measured every 8 hours with an oxygen analyzer. After 5 days, the mice are removed from the incubator, placed in room air, and drug treatment is begun. […] Vehicle (control) or vehicle containing various concentrations of drug (volume =50 μl in neonates and 100 μl in adult mice) is placed in the stomach by gavage. After 5 days of treatment at P17, mice are sacrificed, eyes are rapidly removed and frozen in optimum cutting temperature embedding compound (OCT; Miles Diagnostics, Elkhart, IN) or fixed in 10% phosphate-buffered formalin and embedded in paraffin. Adult C57BL6J mice are also treated by gavage with drug or vehicle and after 5 days, they are sacrificed and their eyes are processed for frozen or paraffin sections.
Slides are rinsed with 0.05M Tris-buffered saline, pH 7.6 (TBS) and incubated 2 hours at room temperature with biotinylated lectin. […] Some slides are counterstained with hematoxyfn and all are mounted with Cytoseal.
The entire eye is sampled by staining sections roughly 50-60 μm apart, which provided 13 sections per eye for analysis. […] The mean of the 13 measurements from each eye is used as a single experimental value.
Series [14] has as its target insulin receptor (Homo sapiens, UniProt P06213). The series can be described thus: cellular autophosphorylation assay, Chinese hamster ovary cells transfected with RTK gene. The following applies: transfected CHO cells.
Description: as §1

c-Kit, sequence (P10721 26-976): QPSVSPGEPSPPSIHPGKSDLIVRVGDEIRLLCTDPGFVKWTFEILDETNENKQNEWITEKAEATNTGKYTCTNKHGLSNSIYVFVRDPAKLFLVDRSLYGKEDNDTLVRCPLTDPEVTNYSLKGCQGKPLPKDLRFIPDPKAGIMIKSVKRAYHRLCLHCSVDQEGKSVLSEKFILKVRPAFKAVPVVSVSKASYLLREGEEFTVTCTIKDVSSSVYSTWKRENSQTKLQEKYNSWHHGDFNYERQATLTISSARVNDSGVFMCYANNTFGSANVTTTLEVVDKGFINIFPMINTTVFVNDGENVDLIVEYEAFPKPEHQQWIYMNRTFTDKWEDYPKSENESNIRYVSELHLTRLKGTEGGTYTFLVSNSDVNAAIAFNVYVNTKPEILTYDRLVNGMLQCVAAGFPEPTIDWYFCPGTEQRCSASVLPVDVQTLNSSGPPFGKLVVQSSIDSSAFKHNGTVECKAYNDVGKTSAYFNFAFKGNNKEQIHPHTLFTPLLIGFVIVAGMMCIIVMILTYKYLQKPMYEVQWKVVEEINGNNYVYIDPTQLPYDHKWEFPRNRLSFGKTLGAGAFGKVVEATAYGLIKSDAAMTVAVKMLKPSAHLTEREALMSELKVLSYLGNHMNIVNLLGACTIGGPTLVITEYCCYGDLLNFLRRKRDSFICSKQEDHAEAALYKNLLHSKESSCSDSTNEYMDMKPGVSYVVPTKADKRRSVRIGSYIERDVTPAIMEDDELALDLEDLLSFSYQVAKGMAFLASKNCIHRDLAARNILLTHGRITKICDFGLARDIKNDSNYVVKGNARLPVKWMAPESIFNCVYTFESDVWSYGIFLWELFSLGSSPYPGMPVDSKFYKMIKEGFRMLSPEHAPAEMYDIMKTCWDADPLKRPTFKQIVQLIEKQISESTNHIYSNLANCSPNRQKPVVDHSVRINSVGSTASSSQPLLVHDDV
T4 sequence (Q02763 824-1096 limits assumed, species assumed): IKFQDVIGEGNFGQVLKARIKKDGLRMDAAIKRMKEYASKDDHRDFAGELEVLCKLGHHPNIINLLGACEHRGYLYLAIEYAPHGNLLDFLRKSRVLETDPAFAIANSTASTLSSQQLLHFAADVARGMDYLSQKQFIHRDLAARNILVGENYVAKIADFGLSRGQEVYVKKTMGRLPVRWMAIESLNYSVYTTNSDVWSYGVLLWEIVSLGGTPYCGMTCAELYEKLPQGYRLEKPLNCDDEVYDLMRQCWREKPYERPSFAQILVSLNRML
T2 sequence (P35918 832-1160 limits assumed): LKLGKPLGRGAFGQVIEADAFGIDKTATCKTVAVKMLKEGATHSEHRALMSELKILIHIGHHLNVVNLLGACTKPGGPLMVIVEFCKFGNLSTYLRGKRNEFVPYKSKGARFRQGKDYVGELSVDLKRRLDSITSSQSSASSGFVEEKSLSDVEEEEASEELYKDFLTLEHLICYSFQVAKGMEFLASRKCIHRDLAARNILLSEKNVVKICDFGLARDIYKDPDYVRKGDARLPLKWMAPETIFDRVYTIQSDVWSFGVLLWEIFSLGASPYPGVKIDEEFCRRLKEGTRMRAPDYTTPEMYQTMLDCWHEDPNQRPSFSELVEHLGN
c-erbB2, sequence (P04626 23-1255): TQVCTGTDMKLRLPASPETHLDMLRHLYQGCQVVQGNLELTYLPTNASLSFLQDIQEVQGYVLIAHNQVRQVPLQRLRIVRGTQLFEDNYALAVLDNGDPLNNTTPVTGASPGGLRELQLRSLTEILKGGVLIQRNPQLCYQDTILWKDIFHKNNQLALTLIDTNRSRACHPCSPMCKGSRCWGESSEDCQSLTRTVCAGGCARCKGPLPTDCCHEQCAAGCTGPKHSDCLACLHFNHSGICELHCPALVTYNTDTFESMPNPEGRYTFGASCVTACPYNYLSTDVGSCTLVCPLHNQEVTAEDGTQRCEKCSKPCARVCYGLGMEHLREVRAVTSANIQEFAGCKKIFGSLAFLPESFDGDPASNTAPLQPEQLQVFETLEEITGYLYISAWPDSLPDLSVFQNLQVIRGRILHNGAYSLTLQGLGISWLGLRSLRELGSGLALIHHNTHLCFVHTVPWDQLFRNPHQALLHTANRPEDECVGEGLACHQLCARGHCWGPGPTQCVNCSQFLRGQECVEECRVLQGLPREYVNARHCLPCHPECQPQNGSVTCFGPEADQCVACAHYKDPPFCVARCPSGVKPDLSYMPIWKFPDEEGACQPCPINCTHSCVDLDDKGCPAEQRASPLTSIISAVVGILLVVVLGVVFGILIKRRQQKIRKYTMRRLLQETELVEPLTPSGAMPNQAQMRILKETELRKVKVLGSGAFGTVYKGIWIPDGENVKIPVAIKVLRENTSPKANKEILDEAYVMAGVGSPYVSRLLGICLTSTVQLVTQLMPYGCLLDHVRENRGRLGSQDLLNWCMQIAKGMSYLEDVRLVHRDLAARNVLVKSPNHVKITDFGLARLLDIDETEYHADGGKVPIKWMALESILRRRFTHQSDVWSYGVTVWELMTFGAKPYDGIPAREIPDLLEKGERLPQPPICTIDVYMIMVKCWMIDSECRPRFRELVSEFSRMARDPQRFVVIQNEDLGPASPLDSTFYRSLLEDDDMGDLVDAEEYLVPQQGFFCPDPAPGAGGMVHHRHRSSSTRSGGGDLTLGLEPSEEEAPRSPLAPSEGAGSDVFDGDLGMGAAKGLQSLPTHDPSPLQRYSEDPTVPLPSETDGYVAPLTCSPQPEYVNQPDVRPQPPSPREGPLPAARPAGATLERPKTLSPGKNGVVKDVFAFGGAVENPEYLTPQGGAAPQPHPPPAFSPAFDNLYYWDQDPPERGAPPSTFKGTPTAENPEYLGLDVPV
insulin receptor, sequence (P06213 28-1382, species assumed): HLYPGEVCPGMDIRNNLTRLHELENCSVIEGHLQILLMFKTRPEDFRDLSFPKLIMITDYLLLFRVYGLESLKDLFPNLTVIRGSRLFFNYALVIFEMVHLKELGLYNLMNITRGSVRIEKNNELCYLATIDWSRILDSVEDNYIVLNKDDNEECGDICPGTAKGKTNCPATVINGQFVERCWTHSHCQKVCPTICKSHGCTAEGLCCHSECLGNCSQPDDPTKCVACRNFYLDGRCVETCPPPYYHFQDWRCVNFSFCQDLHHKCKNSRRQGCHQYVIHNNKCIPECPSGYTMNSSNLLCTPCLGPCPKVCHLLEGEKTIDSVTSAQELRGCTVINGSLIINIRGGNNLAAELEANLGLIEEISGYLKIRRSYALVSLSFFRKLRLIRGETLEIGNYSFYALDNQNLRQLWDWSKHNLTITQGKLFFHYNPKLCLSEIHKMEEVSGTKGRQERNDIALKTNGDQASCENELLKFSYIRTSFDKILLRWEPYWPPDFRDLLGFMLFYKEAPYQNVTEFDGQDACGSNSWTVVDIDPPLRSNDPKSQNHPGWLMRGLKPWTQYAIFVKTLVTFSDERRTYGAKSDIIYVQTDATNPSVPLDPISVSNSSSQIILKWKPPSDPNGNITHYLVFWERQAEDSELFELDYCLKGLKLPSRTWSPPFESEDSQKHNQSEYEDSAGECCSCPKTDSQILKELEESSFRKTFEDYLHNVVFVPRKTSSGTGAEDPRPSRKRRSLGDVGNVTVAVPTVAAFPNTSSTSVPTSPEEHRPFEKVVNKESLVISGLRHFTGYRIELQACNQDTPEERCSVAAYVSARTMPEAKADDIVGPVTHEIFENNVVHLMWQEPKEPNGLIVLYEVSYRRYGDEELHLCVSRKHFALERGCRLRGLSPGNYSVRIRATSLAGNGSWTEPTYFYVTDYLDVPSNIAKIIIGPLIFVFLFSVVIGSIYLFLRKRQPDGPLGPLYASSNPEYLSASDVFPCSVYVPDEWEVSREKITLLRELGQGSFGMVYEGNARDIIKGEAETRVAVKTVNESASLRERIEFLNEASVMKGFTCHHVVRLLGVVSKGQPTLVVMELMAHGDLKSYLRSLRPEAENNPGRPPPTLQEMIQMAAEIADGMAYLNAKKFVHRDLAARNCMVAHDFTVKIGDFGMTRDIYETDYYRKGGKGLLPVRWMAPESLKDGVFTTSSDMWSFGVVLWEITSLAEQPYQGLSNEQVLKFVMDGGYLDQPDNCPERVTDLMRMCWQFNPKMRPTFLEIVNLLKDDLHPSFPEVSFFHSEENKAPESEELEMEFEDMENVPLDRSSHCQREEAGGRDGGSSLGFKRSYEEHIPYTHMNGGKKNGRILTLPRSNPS
T1 sequence (P08581 1078-1345 limits assumed): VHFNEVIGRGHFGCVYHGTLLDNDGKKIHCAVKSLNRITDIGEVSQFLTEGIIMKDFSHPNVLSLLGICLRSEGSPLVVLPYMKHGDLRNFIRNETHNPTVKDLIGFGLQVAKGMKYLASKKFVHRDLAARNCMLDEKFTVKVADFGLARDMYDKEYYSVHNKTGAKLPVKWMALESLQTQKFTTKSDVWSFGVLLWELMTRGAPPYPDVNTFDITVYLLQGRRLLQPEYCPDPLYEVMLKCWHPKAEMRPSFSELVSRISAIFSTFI

In the case of `Cc1ccc(NC(=O)c2ccccc2)cc1Nc1nccc(-c2cccnc2)n1` [CGP 53 716], the “inhibition of autophosphorylation of PDGF receptors” value (shortened to “inhibition … of PDGF receptors”) in [1] was “potent inhibitors”. Also, the pIC50 in series [2] was less than 5.00; in series [3], less than 6.00; in series [5] (kinase inhibitory profile) it was less than 6.00; in [6] it was less than 6.00. In [4], the “inhibition of autophosphorylation of VEGF receptors” value (from here on “inhibition … of VEGF receptors”) is listed as “poor inhibitors”. Moreover, the “inhibitory activity on other RTKs including VEGF receptors” value in [7] is “little or no inhibitory activity”.

Regarding `Cc1ccc(NC(=O)c2ccc(CN3CCN(C)CC3)cc2)cc1Nc1nccc(-c2cccnc2)n1` [CGP 57 148B], the “inhibition … of PDGF receptors” value in series [1] is “potent inhibitors”. Also, the “inhibition … of VEGF receptors” value in series [4] is reported as “poor inhibitors”. Besides, the “inhibitory activity on other RTKs including VEGF receptors” value in [7] was “little or no inhibitory activity”.

Regarding `Clc1ccc(Nc2nnc(Cc3ccncc3)c3ccccc23)cc1` [CGP 79787D], the “inhibition … of PDGF receptors” value in series [1] was “inhibits”. In series [8] (10 mg/kg daily injections from P0, P7), the “extension of retinal vessels toward the periphery at P7” value is “only extended about half way to the periphery”. In addition, in series [8] (10 mg/kg daily injections from P0, P10), the “extension of superficial capillary bed at P10” value is given as “has not yet reached the edge of the retina”. In addition, in series [9], the “total area of endothelial staining in the retina or appearance of retinal vessels versus vehicle” value is reported as “no difference”. In series [10], the “appearance of overlying retinal vessels” value was “appeared normal” and the “choroidal neovascularization at site of laser-induced rupture of Bruch's membrane” value is listed as “very little if any choroidal neovascularization”. Besides, the “inhibition … of VEGF receptors” value in series [4] was “inhibits”. For the same molecule, the “inhibition of phosphorylation by kinase domain of human VEGF receptor 1” value in series [5] is “good inhibitor”. For the same molecule, the “inhibition of autophosphorylation of c-erbB2” value in series [11] is “poor inhibitor”. In series [12], the “inhibition of autophosphorylation of c-Kit” value is reported as “inhibits”. Besides, in series [13] (0.25 mg/kg), the “decrease of total endothelial staining in the retina” value is given as “not statistically significant” and the “staining in the inner nuclear layer” value is listed as “no identifiable decrease”. In series [13] (2.5 mg/kg twice a day), the “endothelial cell staining in the retina” value is reported as “significantly less than vehicle-treated controls” and the “endothelial staining in the inner nuclear layer” value is “some decrease”. Moreover, the “endothelial cell staining in inner nuclear layer and outer plexiform layer (deep capillary bed)” value in [13] (25 mg/kg twice a day) is “striking absence”. Besides, in [13] (25 mg/kg twice a day, gavage, 5 days), the “neovascularization (endothelial cells on the surface of the retina)” value is given as “complete inhibition”. In addition, the “endothelial cell staining within the retina” value in series [13] (25 mg/kg twice a day, gavage, 5 days, versus vehicle) is listed as “dramatic decrease”. Moreover, the “inhibition of autophosphorylation of insulin receptor” value in [14] is “poor inhibitor”.

By pIC50 is commonly meant the negative decadic logarithm of the IC50, by convention in mol/L.
